Test results published in patent US7601336B2, “Pharmaceutical aerosol composition” (Chiesi Farmaceutici S.p.A., priority 1997, dated 2009).
Where two headings read alike, the source gives them in different places. Values belong to the molecule of their own block, whether it stands above or below them.

Columns and labels:
[1] = Aerodynamic particle size distribution by Andersen Cascade Impactor (ACI), ten cumulative actuations, drug on plates by HPLC; format: physicochemical
Protocol: The aerosol compositions of the invention described below were prepared by the following method. The required components of a composition were added into a can in the following order: drug, non-volatile additive, absolute ethanol. After crimping of the valve on to the can, the propellant was added through the valve. The weight gain of the can after each component was added was recorded to allow the percentage, by weight, of each component in the formulation to be calculated. The aerodynamic particle size distribution of each formulation was characterized using a Multistage Cascade Impactor according to the procedure described in the European Pharmacopoeia 2nd edition, 1995, part V.5.9.1. pages 15-17. In this specific case an Andersen Cascade Impactor (ACI) was used. Results represented were obtained from ten cumulative actuations or a formulation. Deposition of the drug on each ACI plate was determined by high pressure liquid chromatography. The mass median aerodynamic diameter (MMAD) and geometric standard deviation (GSD) were calculated from plots of the cumulative percentage undersize of drug collected on each ACI plate (probit scale), against the upper cut off diameter for each respective ACI plate (log10 scale). The fine particle dose of each formulation was determined from the mass of drug collected on Stages 2 through to Filter (<5.8 μm) divided by the number of actuations per experiment.

[2] = BDP as a solution in HFA 134a (formulations of EP 0553298), reported in literature; cited from earlier work
[3] = BDP 10 mg/10 ml, ethanol 7.9%, HFA 134a, actuator orifice 0.25 mm
[4] = BDP 10 mg/10 ml, ethanol 12.9-13.0%, HFA 134a, actuator orifice 0.25 mm
[5] = BDP 10 mg/10 ml, ethanol 12.9 ± 0.1% (w/w), HFA 134a, propylene glycol 0.0% (w/w), actuator orifice 0.42 mm
[6] = BDP 10 mg/10 ml, ethanol 12.9 ± 0.1% (w/w), HFA 134a, propylene glycol 1.1% (w/w), actuator orifice 0.42 mm
[7] = BDP 10 mg/10 ml, ethanol 12.9 ± 0.1% (w/w), HFA 134a, propylene glycol 3.2% (w/w), actuator orifice 0.42 mm
[8] = BDP 10 mg/10 ml, ethanol 12.9 ± 0.1% (w/w), HFA 134a, propylene glycol 6.8% (w/w), actuator orifice 0.42 mm
[9] = BDP 10 mg/10 ml, ethanol 13.6%, H2O 0.5%, HFA 134a, actuator orifice 0.33 mm
[10] = BDP 10 mg/10 ml, ethanol 13.7%, H2O 0.1%, HFA 134a, actuator orifice 0.33 mm
[11] = BDP 20 mg/10 ml, ethanol 7.9%, HFA 134a, actuator orifice 0.25 mm
[12] = BDP 20 mg/10 ml, ethanol 13.0%, HFA 134a, actuator orifice 0.25 mm
[13] = BDP 50 mg/10 ml, ethanol 14.9%, H2O 0.1%, HFA 134a, actuator orifice 0.33 mm
[14] = BDP 50 mg/10 ml, ethanol 14.9%, H2O 0.5%, HFA 134a, actuator orifice 0.33 mm
[15] = BDP 50 mg/10 ml, ethanol 14.9 ± 0.1% (w/w), HFA 134a, PEG 0.0% (w/w), actuator orifice 0.33 mm
[16] = BDP 50 mg/10 ml, ethanol 14.9 ± 0.1% (w/w), HFA 134a, PEG 400 1.1% (w/w), actuator orifice 0.33 mm
[17] = BDP 50 mg/10 ml, ethanol 14.9 ± 0.1% (w/w), HFA 134a, PEG 8000 1.0% (w/w), actuator orifice 0.33 mm
[18] = BDP 50 mg/10 ml, ethanol 15.0 ± 0.2% (w/w), HFA 134a, glycerol 0.0% (w/w), actuator orifice 0.25 mm
[19] = BDP 50 mg/10 ml, ethanol 15.0 ± 0.2% (w/w), HFA 134a, glycerol 0.0% (w/w), actuator orifice 0.33 mm
[20] = BDP 50 mg/10 ml, ethanol 15.0 ± 0.2% (w/w), HFA 134a, glycerol 1.0% (w/w), actuator orifice 0.25 mm
[21] = BDP 50 mg/10 ml, ethanol 15.0 ± 0.2% (w/w), HFA 134a, glycerol 1.0% (w/w), actuator orifice 0.33 mm
[22] = BDP 50 mg/10 ml, ethanol 15.0 ± 0.2% (w/w), HFA 134a, glycerol 1.3% (w/w), actuator orifice 0.25 mm
[23] = BDP 50 mg/10 ml, ethanol 15.0 ± 0.2% (w/w), HFA 134a, glycerol 1.3% (w/w), actuator orifice 0.33 mm
[24] = BDP 50 mg/10 ml, ethanol 15.0 ± 0.2% (w/w), HFA 134a, glycerol 1.6% (w/w), actuator orifice 0.25 mm
[25] = BDP 50 mg/10 ml, ethanol 15.0 ± 0.2% (w/w), HFA 134a, glycerol 1.6% (w/w), actuator orifice 0.33 mm
[26] = BDP 50 mg/10 ml, ethanol 15.0 ± 0.2% (w/w), HFA 227 fill to 12 ml, 0% (w/w) glycerol, actuator orifice 0.33 mm
[27] = BDP 50 mg/10 ml, ethanol 15.0 ± 0.2% (w/w), HFA 227 fill to 12 ml, 1.42% (w/w) glycerol, actuator orifice 0.33 mm
[28] = BDP 50 mg/10 ml, ethanol 15.2 ± 0.4% (w/w), HFA 134a, propylene glycol 0.0% (w/w), actuator orifice 0.42 mm
[29] = BDP 50 mg/10 ml, ethanol 15.2 ± 0.4% (w/w), HFA 134a, propylene glycol 0.7% (w/w), actuator orifice 0.42 mm
[30] = BDP 50 mg/10 ml, ethanol 15.2 ± 0.4% (w/w), HFA 134a, propylene glycol 2.8% (w/w), actuator orifice 0.42 mm
[31] = BDP 50 mg/10 ml, ethanol 15.2 ± 0.4% (w/w), HFA 134a, propylene glycol 6.3% (w/w), actuator orifice 0.42 mm
[32] = combination BDP 50 mg/10 ml + Salbutamol base 20 mg/10 ml, ethanol 15.4 ± 0.2% (w/w), HFA 134a, glycerol 0%, oleic acid 0%, actuator exit orifice 0.33 mm
[33] = combination BDP 50 mg/10 ml + Salbutamol base 20 mg/10 ml, ethanol 15.4 ± 0.2% (w/w), HFA 134a, glycerol 0%, oleic acid 0.3%, actuator exit orifice 0.33 mm
[34] = combination BDP 50 mg/10 ml + Salbutamol base 20 mg/10 ml, ethanol 15.4 ± 0.2% (w/w), HFA 134a, glycerol 0%, oleic acid 1.3%, actuator exit orifice 0.30 mm
[35] = combination BDP 50 mg/10 ml + Salbutamol base 20 mg/10 ml, ethanol 15.4 ± 0.2% (w/w), HFA 134a, glycerol 1.2%, oleic acid 0.3%, actuator exit orifice 0.30 mm
[36] = Flunisolide 50 mg/10 ml, ethanol 15.0 ± 0.1%, HFA 134a, menthol 0% (w/w), glycerol 0% (w/w), actuator orifice 0.30 mm
[37] = Flunisolide 50 mg/10 ml, ethanol 15.0 ± 0.1%, HFA 134a, menthol 0.4% (w/w), glycerol 0.9% (w/w), actuator orifice 0.30 mm
[38] = Salbutamol base 20 mg/10 ml, ethanol 15% (w/w), HFA 134a, glycerol 0% (w/w), oleic acid 0.35% (w/w), actuator orifice 0.30 mm
[39] = Salbutamol base 20 mg/10 ml, ethanol 15% (w/w), HFA 134a, glycerol 1.3% (w/w), oleic acid 0.36% (w/w), actuator orifice 0.30 mm

Fine particle dose [1, 3]: 31.1 µg
MMAD ± GSD [1, 3]: 0.8 ± 1.8
Mean emitted dose [1, 3]: 44.7 µg
Fine particle dose [1, 4]: 24.5 µg
MMAD ± GSD [1, 4]: 0.9 ± 2.0
Mean emitted dose [1, 4]: 45.1 µg
Fine particle dose [1, 5]: 10.3 µg
MMAD ± GSD [1, 5]: 1.1 ± 2.3 μm
Mean emitted dose [1, 5]: 41.8 µg
Fine particle dose [1, 6]: 9.3 µg
MMAD ± GSD [1, 6]: 1.6 ± 3.4 μm
Mean emitted dose [1, 6]: 44.0 µg
Fine particle dose [1, 7]: 7.3 µg
MMAD ± GSD [1, 7]: 2.9 ± 4.1 μm
Mean emitted dose [1, 7]: 43.6 µg
Fine particle dose [1, 8]: 4.9 µg
MMAD ± GSD [1, 8]: 4.6 ± 3.9 μm
Mean emitted dose [1, 8]: 44.9 µg
Fine particle dose [1, 9]: 12.7 µg
MMAD ± GSD [1, 9]: 1.0 ± 2.1 μm
Mean emitted dose [1, 9]: 42.9 µg
Fine particle dose [1, 10]: 14.9 µg
MMAD ± GSD [1, 10]: 1.0 ± 2.2 μm
Mean emitted dose [1, 10]: 43.2 µg
Fine particle dose [1, 11]: 63.1 µg
MMAD ± GSD [1, 11]: 1.0 ± 1.8
Mean emitted dose [1, 11]: 84.8 µg
Fine particle dose [1, 12]: 46.2 µg
MMAD ± GSD [1, 12]: 1.0 ± 1.9
Mean emitted dose [1, 12]: 87.6 µg
Fine particle dose [1, 13]: 67.4 µg
MMAD ± GSD [1, 13]: 1.8 ± 2.2 μm
Mean emitted dose [1, 13]: 222.1 µg
Fine particle dose [1, 14]: 60.2 µg
MMAD ± GSD [1, 14]: 1.7 ± 2.2 μm
Mean emitted dose [1, 14]: 215.1 µg
Fine particle dose [1, 15]: 67.4 µg
MMAD ± GSD [1, 15]: 1.8 ± 2.2 μm
Mean emitted dose [1, 15]: 222.1 µg
Fine particle dose [1, 16]: 55.6 µg
MMAD ± GSD [1, 16]: 2.5 ± 2.2 μm
Mean emitted dose [1, 16]: 218.9 µg
Fine particle dose [1, 17]: 55.6 µg
MMAD ± GSD [1, 17]: 2.5 ± 2.2 μm
Mean emitted dose [1, 17]: 215.0 µg
Fine particle dose [1, 18]: 105.9 µg
MMAD ± GSD [1, 18]: 1.4 ± 1.9 μm
Mean emitted dose [1, 18]: 205.8 µg
Fine particle dose [1, 19]: 67.4 µg
MMAD ± GSD [1, 19]: 1.8 ± 2.2 μm
Mean emitted dose [1, 19]: 222.1 µg
Fine particle dose [1, 20]: 94.4 µg
MMAD ± GSD [1, 20]: 2.4 ± 2.0 μm
Mean emitted dose [1, 20]: 218.3 µg
Fine particle dose [1, 21]: 55.9 µg
MMAD ± GSD [1, 21]: 2.8 ± 2.2 μm
Mean emitted dose [1, 21]: 227.9 µg
Fine particle dose [1, 22]: 100.3 µg
MMAD ± GSD [1, 22]: 2.6 ± 2.0 μm
Mean emitted dose [1, 22]: 220.8 µg
Fine particle dose [1, 23]: 54.3 µg
MMAD ± GSD [1, 23]: 3.1 ± 2.3 μm
Mean emitted dose [1, 23]: 228.4 µg
Fine particle dose [1, 24]: 96.6 µg
MMAD ± GSD [1, 24]: 2.7 ± 2.0 μm
Mean emitted dose [1, 24]: 228.0 µg
Fine particle dose [1, 25]: 50.9 µg
MMAD ± GSD [1, 25]: 3.1 ± 2.3 μm
Mean emitted dose [1, 25]: 231.7 µg
FPD [1, 26]: 62.1 µg
GSD [1, 26]: 2.6
MMAD [1, 26]: 2.2 μm
Mean emitted dose [1, 26]: 221.25 µg
FPD [1, 27]: 43.5 µg
GSD [1, 27]: 2.4
MMAD [1, 27]: 4.1 μm
Mean emitted dose [1, 27]: 230.5 µg
Fine particle dose [1, 28]: 41.6 µg
MMAD ± GSD [1, 28]: 1.7 ± 2.3 μm
Mean emitted dose [1, 28]: 209.1 µg
Fine particle dose [1, 29]: 41.1 µg
MMAD ± GSD [1, 29]: 2.1 ± 2.7 μm
Mean emitted dose [1, 29]: 218.4 µg
Fine particle dose [1, 30]: 32.1 µg
MMAD ± GSD [1, 30]: 3.3 ± 3.2 μm
Mean emitted dose [1, 30]: 204.2 µg
Fine particle dose [1, 31]: 25.2 µg
MMAD ± GSD [1, 31]: 4.4 ± 3.8 μm
Mean emitted dose [1, 31]: 242.6 µg
Emitted dose [1, 32]: 208.9 µg
FPD [1, 32]: 67.8 µg
GSD [1, 32]: 2.4
MMAD [1, 32]: 1.7 μm
Emitted dose [1, 33]: 212.7 µg
FPD [1, 33]: 60.6 µg
GSD [1, 33]: 2.3
MMAD [1, 33]: 2.2 μm
Emitted dose [1, 34]: 212.5 µg
FPD [1, 34]: 58.5 µg
GSD [1, 34]: 2.2
MMAD [1, 34]: 2.4 μm
Emitted dose [1, 35]: 210.8 µg
FPD [1, 35]: 63.3 µg
GSD [1, 35]: 2.1
MMAD [1, 35]: 2.9 μm
Compound: CCC(=O)OCC(=O)[C@@]1(OC(=O)CC)[C@@H](C)C[C@H]2[C@@H]3CCC4=CC(=O)C=C[C@]4(C)[C@@]3(Cl)[C@@H](O)C[C@@]21C [BDP, beclomethasone dipropionate]
MMAD [2]: 1.1 μm

Emitted dose [1, 36]: 217.1 µg
Fine Particle Dose (FPD) [1, 36]: 76.85 µg
GSD [1, 36]: 2.15
MMAD [1, 36]: 1.8 µm
Emitted dose [1, 37]: 221.6 µg
Fine Particle Dose (FPD) [1, 37]: 77.84 µg
GSD [1, 37]: 2.1
MMAD [1, 37]: 2.9 µm
Compound: CC1(C)O[C@@H]2C[C@H]3[C@@H]4C[C@H](F)C5=CC(=O)C=C[C@]5(C)[C@H]4[C@@H](O)C[C@]3(C)[C@]2(C(=O)CO)O1 [Flunisolide]

Emitted dose [1, 38]: 85.8 µg
FPD [1, 38]: 29.1 µg
GSD [1, 38]: 2.3
MMAD [1, 38]: 1.7 μm
Emitted dose [1, 39]: 92.0 µg
FPD [1, 39]: 25.2 µg
GSD [1, 39]: 2.4
MMAD [1, 39]: 2.8 μm
Emitted dose [1, 32]: 82.5 µg
FPD [1, 32]: 26.9 µg
GSD [1, 32]: 2.2
MMAD [1, 32]: 1.7 μm
Emitted dose [1, 33]: 84.8 µg
FPD [1, 33]: 24.0 µg
GSD [1, 33]: 2.6
MMAD [1, 33]: 2.0 μm
Emitted dose [1, 34]: 85.9 µg
FPD [1, 34]: 23.9 µg
GSD [1, 34]: 2.1
MMAD [1, 34]: 2.4 μm
Emitted dose [1, 35]: 85.3 µg
FPD [1, 35]: 25.1 µg
GSD [1, 35]: 2.0
MMAD [1, 35]: 3.0 μm
Compound: CC(C)(C)NCC(O)c1ccc(O)c(CO)c1 (stereo not drawn) [Salbutamol base]
